Test results reported in ChEMBL document CHEMBL1201862, “PubChem BioAssay data set” (2004).
Activity calls are given as the source filed them.

Experiments:
[1] = target: Photoreceptor-specific nuclear receptor (Homo sapiens, UniProt Q9Y5X4); type: functional, cell-based;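 also: CHO-S cells with Gal4-NCOR and VP16-NR2E3 two-hybrid luciferase reporter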
[2] = Luminescence Cell-Based Dose Confirmation HTS to Identify Activators of 5'UTR Stem-Loop Driven Alpha-Synuclein mRNA Translation in H4 Neuroglioblastoma Cells. [Related pubchem assays: 1829 (Project Summary), 1814 (Primary HTS)]; type: functional
HeLa = test: HeLa cell cytotoxicity, dose response, cytotoxicity control for MITF activator project, CellTiter-Glo luminescence, cherry-pick samples (AID 540259); type: functional, cell-based; conditions: Homo sapiens
H4 = test: Luminescence Cell-Based Dose Response HTS to Identify Activators of 5'UTR Stem-Loop Driven Prion Protein mRNA Translation in H4 Neuroglioblastoma Cells. [Related pubchem assays: 1829 (Project Summary), 1814 (Primary HTS)]; type: functional; conditions: Homo sapiens
[3] = Luminescence Cell-Based Dose Response HTS to Identify Activators of Luciferase Translation or Activity in H4 […] Cells. [Related pubchem assays: 1829 (Project Summary), 1814 (Primary HTS)]; type: functional
[4] = CRF-BP/CRF-R2 complex antagonists, dose response, cell-based, uHTS hits, 384-well (AID 651639); type: functional, Homo sapiens; conditions: read-out: IC50_Mean
INS1 = test: beta cell apoptosis inhibitors, cytokine rescue, dose response, luminescence, retest (AID 449756); type: functional, cell-based; conditions: Rattus norvegicus;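 also: cell death triggered by IL-1 beta plus TNF-alpha plus IFN-gamma mixture; protective hits raise ATP signal compared with cytokine alone wells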
[5] = target: T1, Corticotropin-releasing factor receptor 2/Corticotropin-releasing factor-binding protein (Homo sapiens, UniProt P24387+Q13324); test: Dose Response confirmation of uHTS hits for small molecule antagonists of the CRF-binding protein and CRF-R2 receptor complex.; type: functional; conditions: read-out: IC50_Mean
T1 sequence (Q13324 whole entry): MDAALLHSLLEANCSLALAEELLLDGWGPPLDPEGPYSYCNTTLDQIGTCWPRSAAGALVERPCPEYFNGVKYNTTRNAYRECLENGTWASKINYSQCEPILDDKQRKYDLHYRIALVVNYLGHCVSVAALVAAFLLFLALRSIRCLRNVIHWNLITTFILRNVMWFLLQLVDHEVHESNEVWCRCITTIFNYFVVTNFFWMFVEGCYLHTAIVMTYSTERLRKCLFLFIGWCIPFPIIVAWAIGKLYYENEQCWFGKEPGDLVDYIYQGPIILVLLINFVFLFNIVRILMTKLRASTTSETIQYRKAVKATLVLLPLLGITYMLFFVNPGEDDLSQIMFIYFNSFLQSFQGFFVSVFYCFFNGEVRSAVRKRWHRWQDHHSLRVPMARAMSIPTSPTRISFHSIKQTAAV
T1 sequence (P24387 whole entry): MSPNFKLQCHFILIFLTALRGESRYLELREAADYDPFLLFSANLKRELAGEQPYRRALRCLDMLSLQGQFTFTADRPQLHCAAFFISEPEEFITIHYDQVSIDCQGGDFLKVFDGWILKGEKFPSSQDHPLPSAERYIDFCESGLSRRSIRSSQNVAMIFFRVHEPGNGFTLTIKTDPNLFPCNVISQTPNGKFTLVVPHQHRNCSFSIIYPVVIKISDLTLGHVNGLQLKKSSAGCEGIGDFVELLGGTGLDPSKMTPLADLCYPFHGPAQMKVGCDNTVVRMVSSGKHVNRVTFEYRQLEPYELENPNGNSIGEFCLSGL

[6] = target: T1, Corticotropin-releasing factor receptor 2/Corticotropin-releasing factor-binding protein; test: activators of CRF receptor 2 with binding protein – uHTS hits, confirmation (AID 602473); type: functional; conditions: read-out: EC50_Mean
[7] = target: T2, Latent membrane protein 1 (Human herpesvirus 4 (strain B95-8), UniProt P03230); test: TES1-eGFP NF-kB reporter inhibition versus Tet-On dsRED, dose response, selectivity assay for LMP1 NF-kB inhibitor project, imaging, HEK293T, dual-color eGFP/dsRED, cherry-picks (AID 588398); type: functional, cell-based
T2 sequence (P03230 whole entry): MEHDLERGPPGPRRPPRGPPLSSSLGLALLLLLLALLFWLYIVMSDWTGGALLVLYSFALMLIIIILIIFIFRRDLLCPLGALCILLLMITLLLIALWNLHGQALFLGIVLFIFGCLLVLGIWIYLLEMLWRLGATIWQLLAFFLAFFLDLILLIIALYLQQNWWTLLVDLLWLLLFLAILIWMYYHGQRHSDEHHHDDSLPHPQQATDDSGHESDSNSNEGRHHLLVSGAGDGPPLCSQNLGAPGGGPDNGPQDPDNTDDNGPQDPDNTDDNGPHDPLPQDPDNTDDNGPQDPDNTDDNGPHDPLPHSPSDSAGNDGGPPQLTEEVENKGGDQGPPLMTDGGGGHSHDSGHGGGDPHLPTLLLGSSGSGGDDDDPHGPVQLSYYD

Escherichia coli [8] = test: microbe, parasite or virus in culture
Escherichia coli [9] = test: microbe, parasite or virus in culture; remark: listed apart in the source
[10] = target: T3, Carboxy-terminal domain RNA polymerase II polypeptide A small phosphatase 1 (Homo sapiens, UniProt Q9GZU7); test: inhibitors of CTDSP1, concentration-response testing, biochemical assay, absorbance-based, actives from ultra-high-throughput screening (AID 540297); type: functional
T3 sequence (Q9GZU7 whole entry): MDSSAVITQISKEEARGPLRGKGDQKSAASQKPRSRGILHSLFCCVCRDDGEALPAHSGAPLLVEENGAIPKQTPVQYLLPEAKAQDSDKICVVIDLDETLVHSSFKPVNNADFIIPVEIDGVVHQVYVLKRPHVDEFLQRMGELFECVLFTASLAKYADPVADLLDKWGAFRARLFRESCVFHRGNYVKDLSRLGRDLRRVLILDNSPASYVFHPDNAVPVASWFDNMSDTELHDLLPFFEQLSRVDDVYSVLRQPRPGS

Mu-type opioid receptor = Mu-type opioid receptor (Homo sapiens, UniProt P35372); test: Counterscreen for agonists of heterodimerization of the mu 1 (OPRM1) and delta 1 (OPRD1) opioid receptors: Luminescence-based cell-based high throughput dose response assay to identify agonists of OPRM1 homodimerization.; type: functional;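 also: U2OS cells expressing OPRM1 and beta-arrestin as split beta-galactosidase partners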
[11] = target: Delta-type opioid receptor (Homo sapiens, UniProt P41143); test: Counterscreen for agonists of heterodimerization of the mu 1 (OPRM1) and delta 1 (OPRD1) opioid receptors: Luminescence-based cell-based high throughput dose response assay to identify agonists of OPRD1 homodimerization. [Related pubchem assays (depositor defined):AID504326, AID504355, AID504692, AID504904, AID504905]; type: functional
[12] = target: 5-hydroxytryptamine receptor 5A (Homo sapiens, UniProt P47898); test: Counterscreen for agonists of OPRM1-OPRD1 heterodimerization: luminescence-based cell-based high throughput dose response assay to identify agonists of 5-hydroxytryptamine (serotonin) 5A receptor (HTR5A). [Related pubchem assays (depositor defined):AID504326, AID504355, AID504692, AID504904, AID504905]; type: functional
CHO = test: cytotoxicity in TLR9-MyD88 CHO cells, dose response, cytotoxicity control for TLR9-MyD88 binding inhibitor project, cell-based, luminescence (AID 588339); type: functional, hamster; conditions: Cricetulus griseus;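 also: CHO cells stably coexpressing TLR9 and MyD88 fusions from primary screen; compound exposure lasted 48 hours before viability readout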
Beta Lactamase = Beta Lactamase (Pseudomonas aeruginosa, UniProt Q932Y6); test: beta-lactamase reporter inhibitor potency, dose response, artefact control for TLR9-MyD88 binding inhibitor project, BLA reporter cells, FRET fluorescence (AID 588341); type: cell-based;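 also: cell based assay in CHO-K1 cells stably expressing beta-lactamase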
Prothrombin = Prothrombin (Bos taurus, UniProt P00735); test: thrombin inhibition, dose response, biochemical, fluorescence polarization, uHTS hits (AID 602369); type: functional
[13] = target: 26S proteasome non-ATPase regulatory subunit 14 (Homo sapiens, UniProt O00487); test: inhibition of proteasome subunit RPN11 – biochemical, fluorescence polarization, uHTS hits, confirmation (AID 602368); type: functional
[14] = target: 72 kDa type IV collagenase (Homo sapiens, UniProt P08253); test: Dose Response validation of uHTS RPN11 inhibitor hits using a MMP-2 Fluorescence assay.; type: functional
Cytochrome P450 2C19 = Cytochrome P450 2C19 (Homo sapiens, UniProt P33261); test: Cytochrome panel assay with activity outcomes. Panel member name: p450-cyp2c19 Compounds with AC50 equal or less than 10 uM are considered active; type: functional; conditions: read-out: AC50
Cytochrome P450 2C9 = Cytochrome P450 2C9 (Homo sapiens, UniProt P11712)
Cytochrome P450 2D6 = Cytochrome P450 2D6 (Homo sapiens, UniProt P10635);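 also: CYP2D6 member of a cytochrome P450 panel assay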
Cytochrome P450 3A4 = Cytochrome P450 3A4 (Homo sapiens, UniProt P08684);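 also: CYP3A4 tested as one member of a cytochrome P450 panel screen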
[15] = target: T4, DNA repair and recombination protein RAD54-like (Homo sapiens, UniProt Q92698); test: inhibitors of human RAD54 branch migration, confirmation, biochemical, fluorescence, cherry-picked samples, dose series (AID 651657); type: functional
T4 sequence (Q92698 whole entry): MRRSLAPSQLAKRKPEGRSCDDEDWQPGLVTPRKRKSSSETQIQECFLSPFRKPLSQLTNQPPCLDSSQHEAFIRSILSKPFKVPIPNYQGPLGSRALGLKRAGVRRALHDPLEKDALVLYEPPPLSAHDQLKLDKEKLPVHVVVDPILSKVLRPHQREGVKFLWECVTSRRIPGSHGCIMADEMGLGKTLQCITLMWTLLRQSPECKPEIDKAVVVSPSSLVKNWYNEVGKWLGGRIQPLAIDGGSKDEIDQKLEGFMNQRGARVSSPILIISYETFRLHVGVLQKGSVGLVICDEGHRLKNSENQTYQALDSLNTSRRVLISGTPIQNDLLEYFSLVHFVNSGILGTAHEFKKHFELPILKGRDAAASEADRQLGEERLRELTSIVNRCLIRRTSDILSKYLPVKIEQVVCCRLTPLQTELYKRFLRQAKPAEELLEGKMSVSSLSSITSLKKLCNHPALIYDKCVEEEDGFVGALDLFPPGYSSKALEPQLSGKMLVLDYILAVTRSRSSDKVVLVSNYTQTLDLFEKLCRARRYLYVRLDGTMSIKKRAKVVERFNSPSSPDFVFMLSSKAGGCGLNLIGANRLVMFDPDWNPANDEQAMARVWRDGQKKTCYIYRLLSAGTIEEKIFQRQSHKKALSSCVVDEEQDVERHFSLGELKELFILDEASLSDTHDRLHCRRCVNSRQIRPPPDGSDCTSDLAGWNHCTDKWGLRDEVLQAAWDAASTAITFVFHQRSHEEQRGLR

HEK293 = test: inhibitors of LMP1-driven NF-kB reporter, dose response, cell-based, HEK293, luciferase, cherry-pick (AID 588343); type: functional; conditions: Homo sapiens
Nonstructural protein 1 = Nonstructural protein 1 (Influenza A virus, UniProt Q194T2); type: functional, Influenza A virus (A/California/07/2009(H1N1))
[16] = target: Heat shock protein HSP 90-alpha (Homo sapiens, UniProt P07900); type: functional, organism-based

Chain of 72 kDa type IV collagenase (P08253 whole entry): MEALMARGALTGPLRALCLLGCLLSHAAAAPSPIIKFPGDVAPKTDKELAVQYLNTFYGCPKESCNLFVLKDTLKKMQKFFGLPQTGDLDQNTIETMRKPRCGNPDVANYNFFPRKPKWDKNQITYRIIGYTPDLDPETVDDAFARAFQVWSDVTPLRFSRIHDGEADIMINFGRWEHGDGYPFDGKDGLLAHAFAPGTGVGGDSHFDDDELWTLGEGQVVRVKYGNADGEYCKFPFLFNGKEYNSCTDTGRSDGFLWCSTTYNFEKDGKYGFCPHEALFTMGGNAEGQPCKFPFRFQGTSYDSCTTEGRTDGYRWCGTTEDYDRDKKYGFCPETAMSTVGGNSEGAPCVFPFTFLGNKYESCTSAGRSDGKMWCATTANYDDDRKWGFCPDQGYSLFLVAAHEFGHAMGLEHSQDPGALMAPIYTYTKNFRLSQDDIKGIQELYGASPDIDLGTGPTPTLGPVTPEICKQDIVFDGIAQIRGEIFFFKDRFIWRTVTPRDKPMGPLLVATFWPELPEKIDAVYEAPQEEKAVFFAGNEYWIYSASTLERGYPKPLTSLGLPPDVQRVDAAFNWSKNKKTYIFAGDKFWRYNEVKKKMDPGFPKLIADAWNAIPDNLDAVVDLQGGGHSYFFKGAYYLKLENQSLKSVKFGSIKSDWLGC
Chain of 26S proteasome non-ATPase regulatory subunit 14 (O00487 whole entry): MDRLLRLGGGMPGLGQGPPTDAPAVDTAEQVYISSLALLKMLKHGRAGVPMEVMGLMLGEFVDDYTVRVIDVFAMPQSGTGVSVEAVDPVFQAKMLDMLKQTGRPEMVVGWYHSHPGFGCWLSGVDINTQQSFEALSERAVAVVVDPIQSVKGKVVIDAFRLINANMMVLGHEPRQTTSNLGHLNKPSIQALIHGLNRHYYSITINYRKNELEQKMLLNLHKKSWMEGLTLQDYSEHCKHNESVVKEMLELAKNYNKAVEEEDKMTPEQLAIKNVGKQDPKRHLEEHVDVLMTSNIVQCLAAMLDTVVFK
Chain of Delta-type opioid receptor (P41143 whole entry): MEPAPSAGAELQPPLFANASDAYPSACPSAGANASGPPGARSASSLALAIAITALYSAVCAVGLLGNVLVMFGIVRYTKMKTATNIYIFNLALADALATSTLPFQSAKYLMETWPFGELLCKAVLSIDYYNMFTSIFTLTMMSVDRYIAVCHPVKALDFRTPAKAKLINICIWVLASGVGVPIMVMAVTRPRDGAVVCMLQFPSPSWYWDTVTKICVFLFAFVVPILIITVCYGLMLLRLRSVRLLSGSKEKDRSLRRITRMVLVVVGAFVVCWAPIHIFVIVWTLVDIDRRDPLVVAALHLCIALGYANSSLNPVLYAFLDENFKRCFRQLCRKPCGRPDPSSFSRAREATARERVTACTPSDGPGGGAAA
Chain of Nonstructural protein 1 (Q194T2 whole entry): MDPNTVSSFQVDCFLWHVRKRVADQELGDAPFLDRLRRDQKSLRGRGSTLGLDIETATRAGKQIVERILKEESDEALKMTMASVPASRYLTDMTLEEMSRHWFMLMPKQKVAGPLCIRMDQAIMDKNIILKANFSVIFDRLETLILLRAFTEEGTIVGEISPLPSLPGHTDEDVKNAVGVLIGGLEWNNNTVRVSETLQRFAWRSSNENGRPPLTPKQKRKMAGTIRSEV
Chain of Cytochrome P450 2C19 (P33261 whole entry): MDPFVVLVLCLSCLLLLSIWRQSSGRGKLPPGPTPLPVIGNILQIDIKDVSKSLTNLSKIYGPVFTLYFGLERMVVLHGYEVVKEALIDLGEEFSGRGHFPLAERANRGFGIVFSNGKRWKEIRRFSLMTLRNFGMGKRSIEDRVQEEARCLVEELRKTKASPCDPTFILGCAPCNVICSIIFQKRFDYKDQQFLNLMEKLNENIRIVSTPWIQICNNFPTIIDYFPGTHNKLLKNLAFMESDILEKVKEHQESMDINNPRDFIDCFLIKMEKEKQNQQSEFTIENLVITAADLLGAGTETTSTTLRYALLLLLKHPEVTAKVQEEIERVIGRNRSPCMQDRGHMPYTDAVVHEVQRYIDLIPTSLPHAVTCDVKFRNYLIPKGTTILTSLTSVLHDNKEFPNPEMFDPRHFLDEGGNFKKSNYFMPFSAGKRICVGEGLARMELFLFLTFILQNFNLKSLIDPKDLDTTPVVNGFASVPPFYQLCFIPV
Chain of 5-hydroxytryptamine receptor 5A (P47898 whole entry, the tested form may be a part): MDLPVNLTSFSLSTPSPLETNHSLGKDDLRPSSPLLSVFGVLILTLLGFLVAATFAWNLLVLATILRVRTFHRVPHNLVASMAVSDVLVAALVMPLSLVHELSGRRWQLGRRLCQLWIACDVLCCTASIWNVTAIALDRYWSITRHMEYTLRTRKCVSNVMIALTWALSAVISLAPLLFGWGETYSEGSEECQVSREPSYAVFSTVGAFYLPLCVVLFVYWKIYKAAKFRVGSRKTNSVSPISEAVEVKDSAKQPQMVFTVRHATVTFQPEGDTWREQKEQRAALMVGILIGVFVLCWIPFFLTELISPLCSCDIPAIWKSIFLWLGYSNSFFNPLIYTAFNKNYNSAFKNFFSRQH
Chain of Cytochrome P450 2C9 (P11712 whole entry): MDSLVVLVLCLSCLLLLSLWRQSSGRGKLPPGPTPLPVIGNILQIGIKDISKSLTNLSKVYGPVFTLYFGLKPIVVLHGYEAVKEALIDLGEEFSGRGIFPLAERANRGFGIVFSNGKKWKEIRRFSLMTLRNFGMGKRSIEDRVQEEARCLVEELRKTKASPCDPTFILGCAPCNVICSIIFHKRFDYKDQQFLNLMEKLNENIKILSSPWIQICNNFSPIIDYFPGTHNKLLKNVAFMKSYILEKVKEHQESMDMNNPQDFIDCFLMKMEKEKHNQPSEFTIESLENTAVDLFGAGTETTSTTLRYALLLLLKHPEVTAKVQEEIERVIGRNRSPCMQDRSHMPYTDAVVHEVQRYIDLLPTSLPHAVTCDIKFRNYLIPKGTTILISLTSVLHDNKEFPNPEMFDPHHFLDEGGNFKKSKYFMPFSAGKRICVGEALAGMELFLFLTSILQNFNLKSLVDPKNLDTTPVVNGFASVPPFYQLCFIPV
Chain of Beta Lactamase (Q932Y6 whole entry): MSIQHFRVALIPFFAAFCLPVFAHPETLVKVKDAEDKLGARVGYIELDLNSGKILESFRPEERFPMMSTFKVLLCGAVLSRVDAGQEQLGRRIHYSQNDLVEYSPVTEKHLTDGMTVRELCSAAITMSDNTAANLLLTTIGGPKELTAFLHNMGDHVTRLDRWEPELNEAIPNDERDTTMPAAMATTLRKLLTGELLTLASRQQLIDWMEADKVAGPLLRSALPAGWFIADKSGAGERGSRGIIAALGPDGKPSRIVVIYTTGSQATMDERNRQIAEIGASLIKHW
Chain of Cytochrome P450 2D6 (P10635 whole entry): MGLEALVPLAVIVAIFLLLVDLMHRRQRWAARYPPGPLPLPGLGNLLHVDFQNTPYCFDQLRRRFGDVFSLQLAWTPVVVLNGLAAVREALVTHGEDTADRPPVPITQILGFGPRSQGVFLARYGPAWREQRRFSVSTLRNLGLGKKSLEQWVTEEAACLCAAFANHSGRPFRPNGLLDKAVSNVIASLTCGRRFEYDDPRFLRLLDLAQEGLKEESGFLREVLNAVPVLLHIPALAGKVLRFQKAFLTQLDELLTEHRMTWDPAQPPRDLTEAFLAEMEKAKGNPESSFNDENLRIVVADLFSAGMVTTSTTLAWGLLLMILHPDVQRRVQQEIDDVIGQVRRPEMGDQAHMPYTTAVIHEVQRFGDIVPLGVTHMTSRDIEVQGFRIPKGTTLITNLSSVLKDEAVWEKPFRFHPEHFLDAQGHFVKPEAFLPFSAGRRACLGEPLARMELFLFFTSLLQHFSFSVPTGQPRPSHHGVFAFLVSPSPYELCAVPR
Chain of Cytochrome P450 3A4 (P08684 whole entry): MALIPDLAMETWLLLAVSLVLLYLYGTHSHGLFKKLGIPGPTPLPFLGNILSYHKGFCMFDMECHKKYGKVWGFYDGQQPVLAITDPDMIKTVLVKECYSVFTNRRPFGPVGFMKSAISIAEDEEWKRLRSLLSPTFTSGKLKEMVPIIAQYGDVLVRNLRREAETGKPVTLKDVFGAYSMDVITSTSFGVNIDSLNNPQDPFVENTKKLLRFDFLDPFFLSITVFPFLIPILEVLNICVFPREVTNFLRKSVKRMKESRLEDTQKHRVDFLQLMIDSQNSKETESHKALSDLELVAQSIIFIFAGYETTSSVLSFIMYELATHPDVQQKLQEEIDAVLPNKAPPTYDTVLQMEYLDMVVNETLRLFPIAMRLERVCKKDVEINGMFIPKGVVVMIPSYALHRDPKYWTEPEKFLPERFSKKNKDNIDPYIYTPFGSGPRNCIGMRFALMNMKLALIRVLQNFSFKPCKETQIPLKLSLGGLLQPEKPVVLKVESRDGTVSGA
Chain of Mu-type opioid receptor (P35372 whole entry): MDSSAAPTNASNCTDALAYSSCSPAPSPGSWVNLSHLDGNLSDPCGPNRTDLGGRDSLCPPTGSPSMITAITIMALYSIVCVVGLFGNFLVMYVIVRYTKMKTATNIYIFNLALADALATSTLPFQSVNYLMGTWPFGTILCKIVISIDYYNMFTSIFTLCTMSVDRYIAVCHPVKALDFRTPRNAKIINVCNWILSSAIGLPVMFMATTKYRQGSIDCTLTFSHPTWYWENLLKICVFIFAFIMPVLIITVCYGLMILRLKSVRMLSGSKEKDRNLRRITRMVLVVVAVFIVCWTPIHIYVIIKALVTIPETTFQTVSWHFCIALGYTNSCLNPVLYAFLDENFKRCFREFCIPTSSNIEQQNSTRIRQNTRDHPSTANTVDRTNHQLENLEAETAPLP

Nc1nc(N)nc(-c2cc(O)ccc2O)n1
IC50 [1]: 5.7 µM (active)

Cc1ccc(-n2nnc(-c3ccnc4ccccc34)n2)cc1
EC50 [2]: 0.371 µM (active) | AC50 (HeLa): 45.4 µM (active) | EC50 (H4): 14.5 µM (active) | EC50 [3]: 0.745 µM (active)

Fc1ccccc1CN=C(S)Nc1ccc(Cl)cc1
IC50 [4]: 14.8 µM (active)

c1ccc2c(-c3csc(-c4ccncc4)n3)c[nH]c2c1
AC50 (HeLa): 40.5 µM (active)

CC(C)Cn1c(SCC(=O)N2CCc3ccccc3C2)nc2cc(Cl)ccc2c1=O
AC50 (INS1): 7.24 µM (active) | IC50 [5]: 6.92 µM (active) | EC50 [6]: > 53 µM (inactive) | IC50 [4]: 6.45 µM (active)

Cc1ccc(OCCn2cc(C(=S)N3CCCC3)c3ccccc32)cc1C
AC50 [7]: 72.9 µM (active)

Cc1cc(C)c(S(=O)(=O)N2CCN(C(=O)c3ccccc3OCc3c(C)noc3C)CC2)c(C)c1
AC50 [7]: 91.5 µM (active)

C[C@H](NC(=O)c1[nH]cnc1C(=O)NCC(=O)OC(C)(C)C)c1ccccc1
AC50 (Escherichia coli [8]): 46.2 µM (active) | AC50 (Escherichia coli [9]): 52.9 µM (active)

Cc1cc(Cl)ccc1OCC(=O)N[C@@H](Cc1ccccc1)c1nc2ccccc2[nH]1
IC50 [10]: 21.5 µM (active) | EC50 (Mu-type opioid receptor): > 92.5 µM (inactive) | EC50 [11]: > 92.5 µM (inactive) | EC50 [12]: > 92.5 µM (inactive)

c1ccc(-c2ccc3sccc3n2)cc1
AC50 (HeLa): 79 µM (active)

CC(C)CNC(=O)COC(=O)c1c2c(nc3ccccc13)/C(=C/c1cccs1)CC2
AC50 (INS1): 43.8 µM (active) | IC50 (CHO): > 49.7 µM (inactive) | IC50 (Beta Lactamase): 3.52 µM (active)

CC(=O)N1CCc2cc(NN=C3C(=O)CCCC3=O)ccc21
IC50 (Prothrombin): 43.2 µM (active) | IC50 [13]: 30.2 µM (active) | IC50 [14]: > 100 µM (inactive)

CCN1CCc2c(sc(NC(=O)c3ccc(S(=O)(=O)N4CCOCC4)cc3)c2C(=O)OC)C1.Cl
AC50 (Cytochrome P450 2C19): 31.6 µM (inconclusive) | AC50 (Cytochrome P450 2C9): 5.01 µM (inconclusive) | AC50 (Cytochrome P450 2D6): inconclusive | AC50 (Cytochrome P450 3A4): inconclusive | AC50 [15]: 12.8 µM (active)

O=C(COc1ccc2c3c(c(=O)oc2c1)CCCC3)NCc1ccncc1
AC50 (Escherichia coli [9]): 38.2 µM (active)

COc1ccccc1-n1cnc2c(c1=O)c1nc3ccccc3nc1n2-c1ccc(C)cc1
IC50 [10]: 8.78 µM (active)

Cc1nnc(SCc2nc3scc(-c4ccccc4)c3c(=O)[nH]2)s1
IC50 (Prothrombin): 85.3 µM (active) | IC50 [13]: 98.6 µM (active) | IC50 [14]: > 100 µM (inactive)

CC(=NNC(=S)N1CCCCCC1)c1ccccn1
AC50 (HEK293): 0.545 µM (active) | AC50 [7]: 4.98 µM (active) | IC50 (Nonstructural protein 1): 3 µM (active) | AC50 [16]: 3.49 µM (active)
